From patent US11529394B2, “Polypeptide conjugates and methods of uses” (BEIJING QL BIOPHARMACEUTICAL CO., LTD., priority 2020, dated 2022)

Legend:
[1] = endogenous GLP-1; cited from earlier work
GLP-1 receptor = GLP-1 receptor (Homo sapiens, UniProt P43220); details: cited from earlier work
[2] = Body weight loss in C57 lean mice after single subcutaneous dose; assay type: in vivo, C57BL/6 mice
Method: Method: 10 week old male C57BL/6 mice were injected subcutaneously with protein once on Day 1. Body weight was measured daily and five animals were used for each treatment group. […] The area under the curve for body weight loss (%) from 0 until 8 days (AUC ΔBW 0-8d) was calculated.

db/db mice = assay: Non-fasting glucose in db/db mice after single subcutaneous dose; assay type: in vivo; details: non-fasting delta blood glucose
Method: Method: 10 weeks old male db/db mice were injected subcutaneously with protein once. […] Delta blood glucose is glucose subtracted by baseline level. […] The area under the curve for delta blood glucose from 0 until 192 hours (AUCΔBG 0-192 h) was calculated.

human serum albumin = human serum albumin (Homo sapiens, UniProt P02768); assay: Human serum albumin binding by surface plasmon resonance (Biacore 8K); details: human serum albumin on CM5 chip, SPR
human serum albumin, sequence (P02768 25-609): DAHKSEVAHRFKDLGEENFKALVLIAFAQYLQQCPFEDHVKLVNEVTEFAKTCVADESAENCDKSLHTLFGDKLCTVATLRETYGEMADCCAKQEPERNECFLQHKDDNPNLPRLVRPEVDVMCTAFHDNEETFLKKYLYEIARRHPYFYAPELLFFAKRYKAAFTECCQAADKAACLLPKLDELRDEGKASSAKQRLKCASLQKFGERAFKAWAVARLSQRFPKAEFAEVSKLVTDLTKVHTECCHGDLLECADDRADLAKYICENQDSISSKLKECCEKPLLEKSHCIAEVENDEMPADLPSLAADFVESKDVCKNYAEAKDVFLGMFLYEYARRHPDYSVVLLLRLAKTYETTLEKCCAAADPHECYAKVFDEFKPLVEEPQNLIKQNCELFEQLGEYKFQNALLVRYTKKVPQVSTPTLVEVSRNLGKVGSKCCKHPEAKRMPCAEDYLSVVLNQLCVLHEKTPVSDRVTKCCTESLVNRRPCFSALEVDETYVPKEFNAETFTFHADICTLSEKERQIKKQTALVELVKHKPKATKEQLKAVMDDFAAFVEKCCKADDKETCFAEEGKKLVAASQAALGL
Method: Method: Binding of molecules to serum albumin was characterized by surface plastron resonance in a Biacore 8K instrument, Serum albumin from different species was covalently bound to CM5 sensor chips surface until 4000 RU was reached. The chip was blocked by 1M ethanolamine with flowrate of 10 μL/min for 420 s, Each molecule sample was diluted and injected at a flow rate of 30 μL/min to allow for binding to chip-bound albumin for 120 s and for dissociation for 300 s. Binding buffer without molecule was sent over the chip at the flow rate of 20 seconds to allow spontaneous dissociation of bound molecule for 30 seconds.

GLP-1 receptor, sequence (P43220 24-463, species assumed): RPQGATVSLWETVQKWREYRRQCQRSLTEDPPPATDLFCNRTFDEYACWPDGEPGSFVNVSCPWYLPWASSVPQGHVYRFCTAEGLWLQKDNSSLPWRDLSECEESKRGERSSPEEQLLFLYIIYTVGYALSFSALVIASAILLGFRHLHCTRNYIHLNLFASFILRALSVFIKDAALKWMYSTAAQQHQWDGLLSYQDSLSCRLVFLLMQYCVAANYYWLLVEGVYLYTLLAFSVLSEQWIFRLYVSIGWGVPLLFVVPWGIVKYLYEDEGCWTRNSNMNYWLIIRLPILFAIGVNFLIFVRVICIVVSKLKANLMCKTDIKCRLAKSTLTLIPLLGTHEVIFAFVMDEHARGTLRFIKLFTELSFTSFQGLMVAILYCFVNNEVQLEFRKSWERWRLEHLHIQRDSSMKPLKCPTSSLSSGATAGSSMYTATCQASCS

## GLP-1: endogenous Glucagon-Like Peptide-1, 30 or 31 amino acid peptide fragment (7-36 or 7-37)
[1]
  half-life: approximately 2 minutes

## semaglutide [reference compound]
GLP-1 receptor
  loss in GLP-1 receptor binding in presence of human serum albumin (HSA) relative to unconjugated counterpart: 939 fold
[2]; Study 1 (FIG. 1A and 1B), 3 nmol/kg s.c. once
  AUC ΔBW 0-8 d: −0.6 day* %
[2]; Study 1 (FIG. 1A and 1B), 10 nmol/kg s.c. once
  AUC ΔBW 0-8 d: −11.1 day* %
[2]; Study 1 (FIG. 1A and 1B), 30 nmol/kg s.c. once
  AUC ΔBW 0-8 d: −12.7 day* %
[2]; Study 2 (FIG. 1C), 30 nmol/kg s.c. once
  AUC ΔBW 0-8 d: −9.3 day* %
[2]; Study 3 (FIG. 1D), 30 nmol/kg s.c. once
  AUC ΔBW 0-8 d: −13.2 day* %
db/db mice; 3 nmol/kg s.c. once
  AUC ΔBG 0-192 h: -317.0 mmol·h/L
db/db mice; 10 nmol/kg s.c. once
  AUC ΔBG 0-192 h: -583.4 mmol·h/L
db/db mice; 30 nmol/kg s.c. once
  AUC ΔBG 0-192 h: -527.1 mmol·h/L
Human serum albumin
  Rmax: 55.2 RU
